As usually defined, the ED50 is the dose that gives a 50% effect, or the effect in half of the subjects.

Here are results for six molecules from patent publication US4677107A, “Anti-peptic ulcer agent” (Dainippon Pharmaceutical Co., Ltd., priority 1983, dated 1987).

For data set [1] the following is noted: U.S. Pat. No. 4,237,135 and U.K. Pat. No. 2,017,698; cited from earlier work.
The conditions of data set [2]: U.S. Pat. No. 3,542,785 and 3,668,207; cited from earlier work.
The conditions of data set [3]: U.S. Pat. No. 3,542,785 and 3,668,207; cited from earlier work. The source holds these as a separate data set.
The test system of data set [4] is ulceration induced by exposure to stress (restraint and water immersion). Put plainly: Effect on the ulceration induced by exposure to stress (restraint and water immersion). In kind it is in vivo, male Wistar strain rats. The note with it: for ED50: Rattus norvegicus, po, 30 minutes before immersion, rats, read-out: ED50 (dose required for 50% inhibition of the ulcer index). The procedure: [I] Effect on the ulceration induced by exposure to stress (restraint and water immersion): Male Wistar strain rats (weighing, about 200 g) were placed in a stress cage which served to immobilize the animals therein and then immersed in a water bath of 23° C. to the height of xiphoid of the animals according to the method of Takagi et al. [cf. Takagi, K. and Okabe, S., Japan. J. Pharmacol., 18, 9 (1968)]. After 20 hours, the animals were sacrificed and the stomach was removed. The stomach was inflated with 13 ml of saline and placed in 5% formalin solution for 5 minutes. After washing with saline, the stomach was cut open along the greater curvature and the length (mm) of each lesion in the glandular portion was measured using a dissecting microscope (×12). The sum of the length (mm) of each lesions in a stomach was indicated as an ulcer index. In case of reference experiment using butylscopolamine bromide, a photograph of the mucosal surface of stomach was taken after the stomach was treated in the same manner as described above. The photograph was magnified by nine times, and the sum of the area (mm^2) of each lesions in a stomach was indicated as an ulcer index. The ulcer index in drug treated groups was compared with that in control group, and thereby, inhibitory percentage was calculated and then ED50 value, i.e., the dose required for 50% inhibition of the ulcer index, was determined by the usual graphic method. Drugs to be tested were suspended in 0.5% tragacanth solution and administered orally 30 minutes before the immersion. In the control group, a vehicle (0.5% tragacanth solution) was administered.

Another data set concerns gastric secretion. Put plainly: Effect on gastric secretion in rats (pylorus ligation, total acid content). In kind it is in vivo, male Wistar strain rats. As to conditions: for ED50: Rattus norvegicus, po, 30 minutes before ligation, rats, 4 hours after ligation, read-out: ED50 (dose required for 50% reduction of acid content). The procedure: [III] Effect on gastric secretion in rats: Male Wistar strain rats (weighing, about 200 g) were fasted for 24 hours before experiment. The pylorus was ligated under ether anaesthesia. Four hours after the ligation, the stomach was removed under ether anaesthesia. The gastric content was collected and centrifuged, and the secretory volume, pH and acid content of the supernatant were measured. The acid content was measured by titrating to pH 7.0 with 0.02N NaOH using pH meter (Hitachi Horiba, M-5). The total acid content of the drug treated groups was compared with that of the control group, and thereby, the reduction percentage of acid content was calculated and then ED50, i.e. the dose required for 50% reduction of acid content, was determined by the usual graphic method. Drugs to be tested were suspended in 0.5% tragacanth solution and administered orally 30 minutes before the ligation. In the control group, a vehicle (0.5% tragacanth solution) was administered.

Data set [5] has as its system ulceration induced by pylorus-ligation. Put plainly: Effect on the ulceration induced by pylorus-ligation in rats. In kind it is in vivo, male Wistar strain rats. The note with it: for ED50: Rattus norvegicus, po, 30 minutes before ligation, rats, 18 hours, ulcer index 0 to 5, read-out: ED50 (dose required for 50% inhibition of ulcer index). The procedure: [II] Effect on the ulceration induced by pylorus-ligation in rats: Male Wistar strain rats (weighing about 190 g) were fasted for 48 hours before experiment. The pylorus of each rat was ligated under ether anaesthesia according to the method of Shay et al. [cf. Shay, H., et al., Gastroenterology, 5, 43-61 (1945)]. Each of the animals was then allowed to stand abstained from food and water in a cage. After 18 hours, the animals were sacrificed under ether anaesthesia, and the stomachs were removed and cut open along the greater curvature. […] 4: marked ulcers more than two 5: perforated ulcer The ulcer index in drug treated groups was compared to that in the control group, and thereby, the inhibitory percentage was calculated and then ED50, i.e. the dose required for 50% inhibition of ulcer index, was determined by the usual graphic method. Drugs to be tested were suspended in 0.5% tragacanth solution and administered 30 minutes before the ligation. In the control group, a vehicle (0.5% tragacanth solution) was administered.

The subject of data set [6] is contraction of ileum preparation by acetylcholine. As to the kind of experiment: Anti-acetylcholine action (isolated ileum contraction by acetylcholine). Set-up: species or system male Hartley guinea-pigs. As to conditions: for IC50 (50% inhibition concentration), contraction of ileum by acetylcholine: acetylcholine chloride 2×10^-8 g/ml, drug added 2 minutes prior, 35° C.; for anti-acetylcholine activity (in words): isolated guinea-pig ileum. The procedure:
[IV] Anti-acetylcholine action:
A piece of ileum, taken from male Hartley guinea-pigs (weighing 250-350 g) was suspended longitudinally in a bath containing Tyrode solution (20 ml) under constant bubbling of 95% oxygen and 5% carbon dioxide gas at 35° C. The contraction of the preparation by acetylcholine chloride (2×10^-8 g/ml) was recorded on an oscillograph (Nihonkoden, RJG-3004) via an isotonic transducer (Nihonkoden, TD-111S). Drugs to be tested (Compound A and Compound C) were added to the bath 2 minutes prior to the application of acetylcholine chloride. The average percent inhibition of the test Compound A against the contraction of ileum preparation by acetylcholine is shown in the accompanying FIG. 1. Based on the average percent inhibition on the graph, IC50, i.e. 50% inhibition concentration of the test compound, was calculated. […] IC50 of Compound C was calculated likewise. As a result, it was 1.9× 10^-6 g/ml.

The subject of the next data set is pupil size. Put plainly: Mydriatic action in rats. Type of data set: in vivo, male Wistar strain rats. The note with it: for Percent mydriasis: one hour after administration, 3 mm dilation = 100 percent. The source says: [IV] Mydriatic action in rats:
Male Wistar strain rats (weighing, 150-200 g) were used. Pupil size of the animals was twice measured microscopically just before and one hour after administration of drugs at a distance of 30 cm from the source of a constant light (30 W fluorescent light) according to the method of Pulewka [cf. Arch. exp. Path. U. Pharmakol., 168, 307 (1932)]. Based on the change between the first measured pupil size and the second measured pupil size, mydriasis percentage was calculated provided that mydriasis percentage is supposed to be 100 percent in case of 3 mm dilation of pupil size in diameter. Drugs to be tested were suspended in 0.5% tragacanth solution and administered. In the control group, a vehicle (0.5% tragacanth solution) was administered.

Setting [7] is: 1 mg/kg p.o., ulcer index = sum of length (mm) of lesions.
[8] abbreviates: 2 mg/kg p.o., ulcer index = sum of length (mm) of lesions.
Setting [9] is: 5 mg/kg p.o., ulcer index = sum of length (mm) of lesions.
[10] abbreviates: ulcer index = sum of length (mm) of lesions.

SMILES strings stand for the structures. Structures can show the parent of a compound that is named as a salt. Where two headings read alike, the source gives them in different places.

`CN1CCN(c2cc(-c3ccccc3)c3cc(Cl)ccc3n2)CC1` [6-chloro-2-(4-methyl-1-piperazinyl)-4-phenylquinoline]: in data set [1], the anti-reserpine activity entry is given as “weak anti-reserpine activity”. In addition, in data set [2], the diuretic activity entry is given as “diuretic activity”. Further, the anti-inflammatory activity entry in data set [3] is listed as “have anti-inflammatory activity”.

`CCCC[N+]1(C)[C@@H]2C[C@@H](OC(=O)[C@H](CO)c3ccccc3)C[C@H]1[C@@H]1O[C@@H]12` (stereo partly shown) [Butylscopolamine bromide, butylscopolamine bromide, reference compound]: the “Ulcer index Inhibitory %” value is on record as -2.1% in data set [4] (20 mg/kg p.o., ulcer index = sum of area (mm^2) of lesions); 44.1% in data set [4] (50 mg/kg p.o., ulcer index = sum of area (mm^2) of lesions); 97.8% in data set [4] (100 mg/kg p.o., ulcer index = sum of area (mm^2) of lesions); 19.0% in data set [5] (50 mg/kg p.o.); 28.6% in data set [5] (100 mg/kg p.o.); 38.1% in data set [5] (200 mg/kg p.o.). In addition, the ED50 was 49.1 mg/kg in data set [4] (ulcer index = sum of area (mm^2) of lesions from photograph), 25 mg/kg with gastric secretion and above 200 mg/kg in data set [5]. Moreover, the “Total acid content Reduction %” value in the data set with gastric secretion (20 mg/kg p.o.) is recorded as 44.3%; in the data set with gastric secretion (50 mg/kg p.o.), 71.0%; in the data set on gastric secretion (100 mg/kg p.o.), 83.7%.

As to `O=C(O)/C=C\C(=O)O.c1ccc(-c2cc(N3CCNCC3)nc3ccccc23)cc1` [Compound C, 2-(1-piperazinyl)-4-phenylquinoline monomaleate], the “Ulcer index Inhibitory %” value in data set [4] (0.2 mg/kg p.o., ulcer index = sum of length (mm) of lesions) was determined as 45.8%; in data set [4] (0.5 mg/kg p.o., ulcer index = sum of length (mm) of lesions), 55.5%; in data set [4] (setting [7]), 55.9%; in data set [4] (setting [8]), 73.6%; in data set [4] (setting [9]), 71.8%; in data set [5] (5 mg/kg p.o.) it was 37.5%. The “Ulcer index Inhibitory %” value in data set [5] (10 mg/kg p.o.) is recorded as 43.8%; in data set [5] (20 mg/kg p.o.), 56.3%; in data set [5] (50 mg/kg p.o.), 75.0%. Moreover, the figures for the ED50 (in data set [4] (setting [10]); in the data set with gastric secretion; in data set [5]) were 0.45 mg/kg, 1.1 mg/kg and 14 mg/kg, respectively. The “Total acid content Reduction %” value with gastric secretion (1 mg/kg p.o.) is reported as 45.3%; in the data set on gastric secretion (2 mg/kg p.o.), 71.3%; with gastric secretion (5 mg/kg p.o.), 86.3%. Besides, in data set [6], the “IC50 (50% inhibition concentration), contraction of ileum by acetylcholine” value is 1.9 µg/mL. For the same molecule, the “anti-acetylcholine activity (in words)” value in data set [6] is “extremely weak”.

`CCN1CCN(c2cc(-c3ccccc3)c3ccccc3n2)CC1` [Compound A, 2-(4-ethyl-1-piperazinyl)-4-phenylquinolinedihydrochloride]: the “Ulcer index Inhibitory %” value in data set [4] (setting [7]) is on record as 15.5%; in data set [4] (setting [8]), 40.8%; in data set [4] (setting [9]), 85.2%; in data set [4] (10 mg/kg p.o., ulcer index = sum of length (mm) of lesions) it was 88.4%; in data set [5] (5 mg/kg p.o.), 35.3%; in data set [5] (10 mg/kg p.o.), 41.2%. In addition, the “Ulcer index Inhibitory %” value in data set [5] (20 mg/kg p.o.) was 52.9%; in data set [5] (50 mg/kg p.o.), 76.5%. Further, the ED50 in data set [4] (setting [10]) was 2.8 mg/kg; in the data set on gastric secretion it was 1.8 mg/kg; in data set [5], 16 mg/kg. Further, the “Total acid content Reduction %” value stood at 18.2% with gastric secretion (0.5 mg/kg p.o.), 34.7% in the data set with gastric secretion (1 mg/kg p.o.), 54.5% with gastric secretion (2 mg/kg p.o.) and 73.1% in the data set on gastric secretion (5 mg/kg p.o.). The Percent mydriasis with pupil size (5 mg/kg p.o.) was determined as 4.0%; with pupil size (10 mg/kg p.o.), 2.7%; in the data set with pupil size (20 mg/kg p.o.) it was 2.7%; in the data set on pupil size (50 mg/kg p.o.), 1.3%; in the data set on pupil size (100 mg/kg p.o.), 2.6%. The “mydriatic action (in words)” value with pupil size (rats, up to 100 mg/kg) is recorded as “did entirely not show any mydriatic action even in a dose of 100 mg/kg”. In addition, the “IC50 (50% inhibition concentration), contraction of ileum by acetylcholine” value in data set [6] was 1.2 µg/mL. In addition, the “anti-acetylcholine activity (in words)” value in data set [6] was “extremely weak”.

For the molecule `CN/C(=N/CCSCc1nc[nH]c1C)NC#N` [Cimetidine, reference compound], the “Ulcer index Inhibitory %” value in data set [4] (20 mg/kg p.o., ulcer index = sum of length (mm) of lesions) is 29.1%; in data set [4] (50 mg/kg p.o., ulcer index = sum of length (mm) of lesions) it was 75.0%; in data set [4] (100 mg/kg p.o., ulcer index = sum of length (mm) of lesions), 77.0%; in data set [5] (50 mg/kg p.o.), 0%; in data set [5] (100 mg/kg p.o.), 9.1%; in data set [5] (200 mg/kg p.o.) it was 42.4%. In data set [5] (500 mg/kg p.o.), the “Ulcer index Inhibitory %” value came to 75.8%. Further, the ED50 in data set [4] (setting [10]) was 26.9 mg/kg; with gastric secretion, 26.8 mg/kg; in data set [5], 253 mg/kg. Besides, the “Total acid content Reduction %” value in the data set on gastric secretion (10 mg/kg p.o.) worked out at 9.4%; with gastric secretion (20 mg/kg p.o.), 44.0%; in the data set with gastric secretion (50 mg/kg p.o.) it was 71.6%.

Consider `Clc1ccc2nc(N3CCN(c4ccccc4)CC3)cc(-c3ccccc3)c2c1` [6-chloro-2-(4-phenyl-1-piperazinyl)-4-phenylquinoline], for which, in data set [2], the diuretic activity entry is recorded as “diuretic activity”. In addition, the anti-inflammatory activity result in data set [3] was “have anti-inflammatory activity”.
